Where two headings read alike, the source gives them in different places.
Assays:
M2-receptor [1] = target: T1, M2-receptor (Homo sapiens, UniProt P08172); assay: M2-receptor functional agonist assay; type: cell-based; set-up: expressed in transfected cells
T1 sequence (P08172 1-466): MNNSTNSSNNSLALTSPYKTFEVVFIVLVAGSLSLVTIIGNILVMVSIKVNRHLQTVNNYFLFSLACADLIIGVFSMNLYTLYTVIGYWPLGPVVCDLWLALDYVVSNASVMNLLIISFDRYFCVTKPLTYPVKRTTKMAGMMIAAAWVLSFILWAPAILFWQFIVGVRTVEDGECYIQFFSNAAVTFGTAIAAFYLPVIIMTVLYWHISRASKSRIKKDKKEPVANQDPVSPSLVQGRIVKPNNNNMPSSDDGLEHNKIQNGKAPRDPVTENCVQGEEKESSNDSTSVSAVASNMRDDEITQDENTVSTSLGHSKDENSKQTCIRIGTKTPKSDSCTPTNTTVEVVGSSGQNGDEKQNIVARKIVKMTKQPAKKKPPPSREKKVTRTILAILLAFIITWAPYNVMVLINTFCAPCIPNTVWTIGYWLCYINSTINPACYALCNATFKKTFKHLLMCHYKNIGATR
Experimental: (§1) Functional assays were performed using the Alphascreen Surefire phopho-ERK1/2 assay. […] Once adhered, cells were serum starved overnight. Agonist stimulation was performed by the addition of […] agonist to the cells for a pre-optimized 5 min period (37°C). Media was removed and 50 μl of lysis buffer added. After 15 min a 4 μl sample was transferred to a 384-well plate and 7 μl of detection mixture added.

M2-receptor [2] = target: T1, M2-receptor; assay: [3H]-NMS equilibrium radioligand binding, M2
Experimental: (§2) Non-specific binding (NSB) was determined in the presence of 1 μM atropine). Reactions were terminated by rapid filtration onto GF/B filter paper (Whatman, Maidstone, UK) and three washes with 3 mL ice-cold 0.9% NaCl using a Brandel harvester (M-24TI; Brandel, Fort Lauderdale, FL). Membrane bound radioactivity was determined by liquid scintillation (Ultima Gold; PerkinElmer) counting.
(§3) Data was analyzed using PRISM (GraphPad). For saturation binding, non-specific and total binding data were analyzed to a one site binding model. DPM was converted to fmol/mg to compare across constructs. […] […] The Cheng Prusoff equation was used to estimate pKi ([Cheng and Prusoff, 1973]).

M4-receptor = target: T2, M4-receptor (Homo sapiens, UniProt P08173); assay: M4-receptor functional agonist assay; type: cell-based; set-up: expressed in transfected cells
T2 sequence (P08173 1-479): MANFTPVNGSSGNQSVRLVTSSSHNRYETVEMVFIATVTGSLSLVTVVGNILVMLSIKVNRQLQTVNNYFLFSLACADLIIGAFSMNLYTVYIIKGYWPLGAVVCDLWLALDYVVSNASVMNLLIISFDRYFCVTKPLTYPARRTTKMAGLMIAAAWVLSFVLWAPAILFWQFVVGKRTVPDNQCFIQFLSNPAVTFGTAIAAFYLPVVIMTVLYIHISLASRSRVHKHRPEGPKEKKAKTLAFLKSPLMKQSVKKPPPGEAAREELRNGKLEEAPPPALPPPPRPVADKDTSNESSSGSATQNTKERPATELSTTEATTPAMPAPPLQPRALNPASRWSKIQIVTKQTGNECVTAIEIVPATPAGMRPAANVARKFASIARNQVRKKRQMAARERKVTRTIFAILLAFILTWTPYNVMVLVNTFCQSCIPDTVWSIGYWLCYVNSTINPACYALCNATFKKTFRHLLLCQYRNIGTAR
Experimental: as §1

healthy volunteers = assay: Clinical EEG/ERP P300 active auditory oddball paradigm; type: in vivo; conditions: human multiple dosing, high exposure group, day 9
Experimental: Routine EEG was performed for all subjects during screening enrolled in the multiple ascending dose study to avoid enrolling subjects showing clinically significant abnormalities. 19-lead EEG recordings were employed for quantitative (qEEG) analyses. qEEGs were are recorded in resting state with alternating 30 s eyes open and 30 s eyes closed for 5 min first and then about 5 min eyes closed. The P50 protocol employed a series of “click pairs.” The interval between click pairs is at random between 6 to 10 s (Stimuli S1 and S2, 1000 Hz, duration 3 ms, 80 dB sound pressure level [SPL], stimulus onset asynchrony [SOA] = 500 ms, The MMN protocol used twelve different frequencies ranging in 50 Hz steps from 700 to 1250 Hz delivered binaurally via special headphones or earphones. All stimuli were presented with a constant SOA of 300 ms in a pseudo-randomized order assuming a frequency deviation of one train to another of at least 100 Hz with three different lengths/durations of series which occurred evenly. For the P300 active auditory oddball paradigm sinusoidal tones of 90 dB SPL intensity and 50 ms duration were delivered binaurally in an inter-stimulus-interval of 1000 msec. The standard stimulus, a low frequency tone (1000 Hz) appeared with a frequency of 85%. […]

M3-receptor = target: T3, M3-receptor (Homo sapiens, UniProt P20309); assay: [3H]-NMS equilibrium radioligand binding, M3
T3 construct: expressed in transfected cells
T3 sequence (P20309 whole entry): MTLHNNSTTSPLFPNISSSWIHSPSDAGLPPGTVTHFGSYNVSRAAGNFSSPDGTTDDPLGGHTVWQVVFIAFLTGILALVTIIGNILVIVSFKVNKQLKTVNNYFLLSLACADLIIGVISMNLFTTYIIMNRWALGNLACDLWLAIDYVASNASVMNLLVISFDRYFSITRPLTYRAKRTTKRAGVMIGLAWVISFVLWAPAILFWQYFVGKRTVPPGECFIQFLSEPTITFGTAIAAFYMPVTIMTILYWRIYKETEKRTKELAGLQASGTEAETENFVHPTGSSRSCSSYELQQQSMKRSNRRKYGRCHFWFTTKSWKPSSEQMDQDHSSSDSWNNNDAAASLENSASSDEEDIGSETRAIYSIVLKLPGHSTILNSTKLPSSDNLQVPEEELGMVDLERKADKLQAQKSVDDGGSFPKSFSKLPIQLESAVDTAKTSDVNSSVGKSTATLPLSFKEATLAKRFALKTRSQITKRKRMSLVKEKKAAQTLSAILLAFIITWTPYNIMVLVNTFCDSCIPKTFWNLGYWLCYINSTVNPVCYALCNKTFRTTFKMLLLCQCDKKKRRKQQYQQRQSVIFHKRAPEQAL
Experimental: as §2, §3

[3] = Dog plasma and CSF exposure after subcutaneous dosing; type: in vivo; conditions: sc; for concentration at 4 h: CSF, aged beagle, 4 h post-dose, read-out: Measured Ccsf concentration
CA1 neurons = assay: In vivo electrophysiological recording of CA1 neurons in anaesthetised rats; set-up: species or system rat

CCOC(=O)N1CCC[C@H](N2CCC(C(=O)NC3(C)CCC3)CC2)CC1 [HTL9936, ethyl (S)-4-(4-((1-methylcyclobutyl)carbamoyl)piperidin-1-yl)azepane-1-carboxylate]
EC50 (M2-receptor [1]): > 20 µM | M2-receptor agonist activity (M2-receptor [1]): no detectable agonism | Ki (M2-receptor [2]): 3.16 µM | EC50 (M4-receptor): 0.398 µM | M4-receptor agonist activity (M4-receptor): partial agonist activity | P300 deviant amplitude at electrodes Fz and Cz (healthy volunteers): significant within- and between-group effects for deviant amplitude | Binding to the M3-receptor (M3-receptor): no detectable binding | concentration at 4 h ([3]; 0.3 mg/kg s.c.): 13 nM | concentration at 4 h ([3]; 1 mg/kg s.c.): 48 nM | concentration at 4 h ([3]; 2 mg/kg s.c.): 128 nM | Cmax ([3]; plasma, aged beagle DNMP study, 0.3 mg/kg subcutaneous, read-out: Cmax plasma exposure at minimal effective dose): 58 ng/mL | In vivo firing rate of CA1 neurons vs vehicle (CA1 neurons; 10 mg/kg i.v., rats): significant increase in the in vivo firing rate of CA1 neurons | In vivo neuronal firing rate (CA1 neurons; adult rats, 1 and 10 mg/kg, reversed by scopolamine i.v.): concentration-dependent increase in neuronal firing rate
